The numbers were not newly measured in patent EP0275444A1, “Pharmaceutical form for urapidil” (BYK GULDEN LOMBERG CHEMISCHE FABRIK GMBH, priority 1986, dated 1988), which cites them from elsewhere.

Where two headings read alike, the source gives them in different places.

The conditions of data set [1]: in vivo.

In the case of `COc1ccccc1N1CCN(CCCNc2cc(=O)n(C)c(=O)n2C)CC1` [Urapidil, 6-({3-[4-(o-Methoxyphenyl)-1-piperazinyl]propyl}amino)-1,3-dimethyluracil], the Eliminationshalbwertzeit in data set [1] is on record as 2,7 Stunden. The Löslichkeit entry (at the higher pH values of the intestine) is “ausreichende Löslichkeit”. With `OCCN(CCO)c1nc(N2CCCCC2)c2nc(N(CCO)CCO)nc(N3CCCCC3)c2n1` [Dipyridamol], the Löslichkeit entry (above pH 4, in water) is listed as “praktisch wasserunlöslich”.
